Test results as given in patent US20100029657A1, “Bridged, Bicyclic Heterocyclic or Spiro Bicyclic Heterocyclic Derivatives of Pyrazolo[1, 5-A]Pyrimidines, Methods for Preparation and Uses Thereof” (Wyeth, priority 2008, published 2010).

Biological target: T1, Flag/GST-tagged recombinant human B-Raf (Homo sapiens, UniProt P15056)
T1 construct: Flag; GST; made in house; host or cells: Sf9 insect cells (B-Raf); E. coli (MEK1-GST)
Test: B-Raf kinase assay (phosphorylation of GST-MEK1, phospho-MEK1 antibody/Europium detection)
Assay type: biochemical
Conditions: B-Raf IC50 Data for compounds of Formula A; read-out: Mean IC50
Method in brief: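 Percent inhibition was calculated at each compound concentration from Europium time-resolved fluorescence (anti-phospho-MEK1, then Eu-conjugated anti-rabbit) after GST capture. The upstream kinase step used GST-MEK1 with 0.2 nM B-Raf for 45 min at room temperature in MOPS buffer, pH 7.2. It was started with a cocktail of 200 μM ATP and 40 mM MgCl2.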

T1 sequence (P15056 whole entry): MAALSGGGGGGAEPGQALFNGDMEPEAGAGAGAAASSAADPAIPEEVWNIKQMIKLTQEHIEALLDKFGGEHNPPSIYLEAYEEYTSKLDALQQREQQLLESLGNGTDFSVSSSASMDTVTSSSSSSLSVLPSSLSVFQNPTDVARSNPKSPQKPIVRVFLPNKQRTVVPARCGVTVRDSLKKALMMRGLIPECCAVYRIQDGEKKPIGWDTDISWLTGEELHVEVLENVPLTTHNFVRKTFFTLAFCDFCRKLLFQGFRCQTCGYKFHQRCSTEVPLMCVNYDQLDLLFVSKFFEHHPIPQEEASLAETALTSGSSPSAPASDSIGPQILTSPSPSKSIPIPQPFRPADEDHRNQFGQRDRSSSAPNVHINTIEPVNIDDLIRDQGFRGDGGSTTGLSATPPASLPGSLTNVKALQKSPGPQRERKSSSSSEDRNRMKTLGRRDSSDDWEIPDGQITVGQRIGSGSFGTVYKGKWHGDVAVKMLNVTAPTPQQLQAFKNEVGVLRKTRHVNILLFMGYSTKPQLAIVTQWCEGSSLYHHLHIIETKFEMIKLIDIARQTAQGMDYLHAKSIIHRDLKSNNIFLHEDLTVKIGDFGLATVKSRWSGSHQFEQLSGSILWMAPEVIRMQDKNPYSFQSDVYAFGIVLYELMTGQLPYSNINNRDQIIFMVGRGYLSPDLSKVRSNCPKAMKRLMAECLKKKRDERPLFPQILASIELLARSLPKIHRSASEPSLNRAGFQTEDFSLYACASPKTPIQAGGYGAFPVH

| Compound | IC50 |
| --- | --- |
| c1cc(-c2c(-c3ccncc3)nn3c(-c4coc(CN5C[C@@H]6C[C@H]5CO6)c4)ccnc23)c2cn[nH]c2c1 [Example 193, 3-(1H-indazol-4-yl)-7-{5-[(1S,4S)-2-oxa-5-azabicyclo[2.2.1]hept-5-ylmethyl]furan-3-yl}-2-pyridin-4-ylpyrazolo[1,5-a]pyrimidine] | 18.8 nM |
| CC(C)(C)OC(=O)N1C[C@@H]2C[C@H]1CN2Cc1cc(-c2ccnc3c(-c4cccc5[nH]ncc45)c(-c4ccncc4)nn23)co1 [Example 194, tert-butyl (1S,4S)-5-({4-[3-(1H-indazol-4-yl)-2-pyridin-4-ylpyrazolo[1,5-a]pyrimidin-7-yl]furan-2-yl}methyl)-2,5-diazabicyclo[2.2.1]heptane-2-carboxylate] | 9.1 nM |
| c1cc(-c2c(-c3ccncc3)nn3c(-c4coc(CN5C[C@@H]6C[C@H]5CN6)c4)ccnc23)c2cn[nH]c2c1 [Example 195, 7-{5-[(1S,4S)-2,5-diazabicyclo[2.2.1]hept-2-ylmethyl]furan-3-yl}-3-(1H-indazol-4-yl)-2-pyridin-4-ylpyrazolo[1,5-a]pyrimidine] | 13 nM |
| CC(C)(C)OC(=O)N1C[C@@H]2C[C@H]1CN2Cc1ccc(-c2ccnc3c(-c4cccc5[nH]ncc45)c(-c4ccncc4)nn23)s1 [Example 196, tert-butyl (1S,4S)-5-({5-[3-(1H-indazol-4-yl)-2-pyridin-4-ylpyrazolo[1,5-a]pyrimidin-7-yl]thiophen-2-yl}methyl)-2,5-diazabicyclo[2.2.1]heptane-2-carboxylate] | 11.5 nM |
| c1cc(-c2c(-c3ccncc3)nn3c(-c4ccc(CN5C[C@@H]6C[C@H]5CO6)s4)ccnc23)c2cn[nH]c2c1 [Example 197, 3-(1H-indazol-4-yl)-7-{5-[(1S,4S)-2-oxa-5-azabicyclo[2.2.1]hept-5-ylmethyl]thiophen-2-yl}-2-pyridin-4-ylpyrazolo[1,5-a]pyrimidine] | 5.7 nM |
| c1cc(-c2c(-c3ccncc3)nn3c(-c4ccc(CN5C[C@@H]6C[C@H]5CN6)s4)ccnc23)c2cn[nH]c2c1 [Example 198, 7-{5-[(1S,4S)-2,5-diazabicyclo[2.2.1]hept-2-ylmethyl]thiophen-2-yl}-3-(1H-indazol-4-yl)-2-pyridin-4-ylpyrazolo[1,5-a]pyrimidine] | 3.6 nM |
| CCOC(=O)N1[C@@H]2CC[C@H]1C[C@@H](c1c(C)cnc3c(-c4cccc5[nH]ncc45)c(-c4ccncc4)nn13)C2 [Example 199, ethyl (3-endo)-3-[3-(1H-indazol-4-yl)-6-methyl-2-pyridin-4-ylpyrazolo[1,5-a]pyrimidin-7-yl]-8-azabicyclo[3.2.1]octane-8-carboxylate] | 5.5 nM |
| c1cc(-c2c(-c3ccncc3)nn3c(-c4ccc(N5CC6CCC(C5)O6)nc4)ccnc23)c2cn[nH]c2c1 [Example 200, 3-(1H-indazol-4-yl)-7-[6-(8-oxa-3-azabicyclo[3.2.1]oct-3-yl)pyridin-3-yl]-2-pyridin-4-ylpyrazolo[1,5-a]pyrimidine] | 5.8 nM |
| c1cc(-c2c(-c3ccncc3)nn3c(-c4ccc(N5C[C@@H]6C[C@H]5CO6)nc4)ccnc23)c2cn[nH]c2c1 [Example 201, 3-(1H-indazol-4-yl)-7-{6-[(1S,4S)-2-oxa-5-azabicyclo[2.2.1]hept-5-yl]pyridin-3-yl}-2-pyridin-4-ylpyrazolo[1,5-a]pyrimidine] | 8.4 nM |
| CC(C)(C)OC(=O)N1C[C@@H]2C[C@H]1CN2Cc1cccc(-c2ccnc3c(-c4cccc5[nH]ncc45)c(-c4ccncc4)nn23)c1 [Example 202, tert-butyl (1S,4S)-5-{3-[3-(1H-indazol-4-yl)-2-pyridin-4-ylpyrazolo[1,5-a]pyrimidin-7-yl]benzyl}-2,5-diazabicyclo[2.2.1]heptane-2-carboxylate] | > 100 nM |
| CC(C)(C)OC(=O)N1C[C@@H]2C[C@H]1CN2Cc1ccc(-c2ccnc3c(-c4cccc5[nH]ncc45)c(-c4ccncc4)nn23)cc1 [Example 203, tert-butyl (1S,4S)-5-{4-[3-(1H-indazol-4-yl)-2-pyridin-4-ylpyrazolo[1,5-a]pyrimidin-7-yl]benzyl}-2,5-diazabicyclo[2.2.1]heptane-2-carboxylate] | 12 nM |
| c1cc(-c2c(-c3ccncc3)nn3c(-c4ccc(CN5C[C@@H]6C[C@H]5CO6)cc4)ccnc23)c2cn[nH]c2c1 [Example 204, 3-(1H-indazol-4-yl)-7-{4-[(1S,4S)-2-oxa-5-azabicyclo[2.2.1]hept-5-ylmethyl]phenyl}-2-pyridin-4-ylpyrazolo[1,5-a]pyrimidine] | 10 nM |
| Fc1cc(CN2C[C@@H]3C[C@H]2CN3)ccc1-c1ccnc2c(-c3cccc4[nH]ncc34)c(-c3ccncc3)nn12 [Example 205, 7-{4-[(1S,4S)-2,5-diazabicyclo[2.2.1]hept-2-ylmethyl]-2-fluorophenyl}-3-(1H-indazol-4-yl)-2-pyridin-4-ylpyrazolo[1,5-a]pyrimidine] | 0.35 nM |
| Fc1cc(CN2C[C@@H]3C[C@H]2CO3)ccc1-c1ccnc2c(-c3cccc4[nH]ncc34)c(-c3ccncc3)nn12 [Example 206, 7-{2-fluoro-4-[(1S,4S)-2-oxa-5-azabicyclo[2.2.1]hept-5-ylmethyl]phenyl}-3-(1H-indazol-4-yl)-2-pyridin-4-ylpyrazolo[1,5-a]pyrimidine] | 1.5 nM |
| Fc1cc(CN2C[C@H]3C[C@@H]2CO3)ccc1-c1ccnc2c(-c3cccc4[nH]ncc34)c(-c3ccncc3)nn12 [Example 207, 7-{2-fluoro-4-[(1R,4R)-2-oxa-5-azabicyclo[2.2.1]hept-5-ylmethyl]phenyl}-3-(1H-indazol-4-yl)-2-pyridin-4-ylpyrazolo[1,5-a]pyrimidine] | 0.5 nM |
| c1cc(CN2C[C@@H]3C[C@H]2CN3)cc(-c2ccnc3c(-c4cccc5[nH]ncc45)c(-c4ccncc4)nn23)c1 [Example 208, 7-{3-[(1S,4S)-2,5-diazabicyclo[2.2.1]hept-2-ylmethyl]phenyl}-3-(1H-indazol-4-yl)-2-pyridin-4-ylpyrazolo[1,5-a]pyrimidine] | 42 nM |
| c1cc(-c2c(-c3ccncc3)nn3c(-c4ccc(CN5C[C@@H]6C[C@H]5CN6)cc4)ccnc23)c2cn[nH]c2c1 [Example 209, 7-{4-[(1S,4S)-2,5-diazabicyclo[2.2.1]hept-2-ylmethyl]phenyl}-3-(1H-indazol-4-yl)-2-pyridin-4-ylpyrazolo[1,5-a]pyrimidine] | 0.6 nM |
| Fc1cc(CN2C3COCC2COC3)ccc1-c1ccnc2c(-c3cccc4[nH]ncc34)c(-c3ccncc3)nn12 [Example 210, 9-{3-fluoro-4-[3-(1H-indazol-4-yl)-2-pyridin-4-ylpyrazolo[1,5-a]pyrimidin-7-yl]benzyl}-3,7-dioxa-9-azabicyclo[3.3.1]nonane] | 0.7 nM |
| Ethyl 3-[3-(2-oxo-2,3-dihydro-1H-pyrrolo[2,3-b]pyridin-4-yl)-2-pyridin-4-ylpyrazolo[1,5-a]pyrimidin-7-yl-8-azabicyclo[3.2.1]octane-8-carboxylate [Example 86] | 270 nM |
